The structures appear in SMILES notation. Values joined by “and” are separate entries in the source; they are usually repeats but may differ in a detail not shown here. Equal values may be shown once.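 Five compound concentrations were applied to cells in 96-well plates for 48 hours; endpoints were derived by simple linear interpolation of the resulting dose-response curve. GI50 marks 50% less growth. Definition used: TGI = concentration required for complete inhibition of growth.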

Test systems include SK-MEL-2 melanoma; COLO 205 colon; NCI-H460 lung; SN12C renal; UACC-62 melanoma; HCT-116 colon; SR leukemia; PC-3 prostate; NCI/ADR-RES ovarian; RPMI-8226 leukemia.
Common to all, as to test: NCI-60 cell line screen, 48 h

For `[N-]=[N+]=Nc1c([N+](=O)[O-])c(=O)n2c3c(cccc13)CCC2`, the TGI turned out to be 31.2 µM in the assay on SK-MEL-2 melanoma; 20.9 µM in the assay with COLO 205 colon; 35.1 µM in the assay with NCI-H460 lung; 25.9 µM with SN12C renal; 29.9 µM in the assay with UACC-62 melanoma; 30.2 µM with HCT-116 colon. Besides, the TGI was found to be 5.9 µM with SR leukemia, 30.7 µM with PC-3 prostate, 45.5 µM in the assay with NCI/ADR-RES ovarian and 11.5 µM in the assay with RPMI-8226 leukemia.

Consider `CCC[C@@H]1C(=O)N=C(N)N1C(=O)OCc1ccccc1`, for which the TGI with SK-MEL-2 melanoma, in the assay on COLO 205 colon, in the assay with NCI-H460 lung, in the assay on SN12C renal, in the assay with UACC-62 melanoma and with HCT-116 colon was over 100 µM each time. The TGI with SR leukemia, with PC-3 prostate, in the assay with NCI/ADR-RES ovarian and in the assay on RPMI-8226 leukemia was over 100 µM each time.

Consider `CCOC(=O)N1CCC(=C2c3ccc(Cl)cc3CCc3cccnc32)CC1`, for which the TGI in the assay with SK-MEL-2 melanoma was determined as 27.4 µM; in the assay with COLO 205 colon, 21.6 µM; with NCI-H460 lung, 18.9 µM; in the assay with SN12C renal, 24.4 µM; in the assay on UACC-62 melanoma it was 18.9 µM; in the assay on HCT-116 colon, 32.4 µM. Further, the TGI in the assay with SR leukemia came to 14.2 µM; in the assay on PC-3 prostate, 25.7 µM; in the assay with NCI/ADR-RES ovarian it was 23.6 µM; in the assay on RPMI-8226 leukemia, 32.9 µM.

For `COc1ccc(C2=NN=C3C(c4ccccc4)=Nc4ccccc4N3C2)cc1`, the TGI was over 100 µM with SK-MEL-2 melanoma; 70.7 µM in the assay with COLO 205 colon; over 100 µM in the assay with NCI-H460 lung; over 100 µM in the assay on SN12C renal; over 100 µM with UACC-62 melanoma; 71.2 µM with HCT-116 colon. For the same compound, the TGI in the assay on SR leukemia was 49.5 µM; in the assay with PC-3 prostate it was over 100 µM; with NCI/ADR-RES ovarian, 90.1 µM; in the assay on RPMI-8226 leukemia, over 100 µM.

`Cc1ccc(NC(=O)CSC(N)=O)cc1C`: the TGI with SK-MEL-2 melanoma, in the assay with COLO 205 colon, in the assay with NCI-H460 lung, in the assay with SN12C renal, with UACC-62 melanoma and in the assay with HCT-116 colon was over 100 µM each time. Moreover, the TGI in the assay on SR leukemia, in the assay on PC-3 prostate, in the assay with NCI/ADR-RES ovarian and with RPMI-8226 leukemia was over 100 µM each time.

Consider `CN(C)/N=N/c1nc[nH]c1C(N)=O`, for which the TGI in the assay with SK-MEL-2 melanoma was 74.1 µM and 396 µM; in the assay with COLO 205 colon it was over 1000 µM; in the assay with NCI-H460 lung, over 1000 µM; in the assay with SN12C renal, over 1000 µM; in the assay on UACC-62 melanoma, > 98.6 µM and 363 µM; with HCT-116 colon it was over 1000 µM. For the same compound, the TGI with SR leukemia and in the assay on PC-3 prostate was over 1000 µM each time. Further, the GI50 in the assay with COLO 205 colon is 139 µM; in the assay on NCI-H460 lung it was 59.4 µM; in the assay on SN12C renal, 60.6 µM; in the assay with UACC-62 melanoma it was 23.8 µM; with HCT-116 colon, 45.4 µM; with SR leukemia it was 64.4 µM. In addition, the GI50 in the assay with PC-3 prostate was 77.2 µM; in the assay on NCI/ADR-RES ovarian it was 232 µM; in the assay on RPMI-8226 leukemia it was 6.81 µM.

On to `CN(C)CCCNCc1cccc2ccccc12`, for which the TGI in the assay with SK-MEL-2 melanoma, with COLO 205 colon, with NCI-H460 lung, in the assay with SN12C renal, in the assay with UACC-62 melanoma and in the assay with HCT-116 colon was over 100 µM each time. The TGI is 68.5 µM in the assay on SR leukemia, over 100 µM in the assay on PC-3 prostate, over 100 µM in the assay on NCI/ADR-RES ovarian and over 100 µM in the assay on RPMI-8226 leukemia.

Turning to `NC(N)=NCCCC(NC(=O)OCCCCn1ccc(N)nc1=O)C(=O)O` (configuration not stated), the TGI with SK-MEL-2 melanoma, in the assay on COLO 205 colon, with NCI-H460 lung, in the assay on SN12C renal, in the assay with UACC-62 melanoma and in the assay on HCT-116 colon was over 100 µM each time. In addition, the TGI in the assay with SR leukemia, in the assay on PC-3 prostate, in the assay on NCI/ADR-RES ovarian and in the assay on RPMI-8226 leukemia was over 100 µM each time.

In the case of `COc1ccc(-c2nn(-c3ccc(NC(=O)Nc4ccc(Cl)c(C(F)(F)F)c4)cc3)cc2-c2ccncc2)cc1Cl`, the GI50 with SK-MEL-2 melanoma was 1.74 µM; in the assay on COLO 205 colon it was 1.62 µM; with NCI-H460 lung it was 1.4 µM; with SN12C renal it was 2.23 µM; with UACC-62 melanoma, 1.33 µM; in the assay with HCT-116 colon it was 1.1 µM. Moreover, the GI50 was 1.86 µM in the assay on SR leukemia, 0.793 µM in the assay on PC-3 prostate, 2.4 µM in the assay with NCI/ADR-RES ovarian and 0.388 µM in the assay on RPMI-8226 leukemia. Besides, the TGI stood at 3.75 µM with SK-MEL-2 melanoma; 3.13 µM in the assay with COLO 205 colon; 3.36 µM in the assay on NCI-H460 lung; 8.69 µM in the assay on SN12C renal; 2.75 µM in the assay with UACC-62 melanoma; 2.69 µM in the assay with HCT-116 colon. In addition, the TGI with SR leukemia was 5.96 µM; with PC-3 prostate it was 5.49 µM; in the assay with NCI/ADR-RES ovarian it was over 100 µM; in the assay with RPMI-8226 leukemia, 1.92 µM.

As for `CC(C)(C)CC(C)(C)c1ccc(O)c(C[N+](C)(C)[O-])c1`, the TGI in the assay on SK-MEL-2 melanoma, in the assay on COLO 205 colon, with NCI-H460 lung, in the assay on SN12C renal, in the assay with UACC-62 melanoma and with HCT-116 colon was over 100 µM in each case. Moreover, the TGI in the assay with SR leukemia, with PC-3 prostate, in the assay with NCI/ADR-RES ovarian and with RPMI-8226 leukemia was over 100 µM each time.

In the case of `CCOC(=O)/C=C(\C(=O)OCC)n1ccc(=O)[nH]c1=O`, the TGI came out at 50 µM in the assay on SK-MEL-2 melanoma; 8.24 µM in the assay with COLO 205 colon; 52.2 µM with NCI-H460 lung; 26.4 µM in the assay with SN12C renal; 31.3 µM in the assay on UACC-62 melanoma; 19.6 µM in the assay with HCT-116 colon. Moreover, the TGI is 29.7 µM in the assay on SR leukemia, 30.7 µM with PC-3 prostate, over 93 µM in the assay with NCI/ADR-RES ovarian and 34.4 µM in the assay on RPMI-8226 leukemia.

In the case of `O=C1C(=Cc2ccc(Cl)c(Cl)c2)C([O-])=C([P+](c2ccccc2)(c2ccccc2)c2ccccc2)C([O-])=C1[P+](c1ccccc1)(c1ccccc1)c1ccccc1`, the TGI stood at 6.91 µM in the assay on SK-MEL-2 melanoma; 3.28 µM with COLO 205 colon; 10.9 µM with NCI-H460 lung; 6.47 µM in the assay on SN12C renal; 5.29 µM with UACC-62 melanoma; 3.73 µM in the assay with HCT-116 colon. In addition, the TGI in the assay on SR leukemia came out at 11.6 µM; in the assay on PC-3 prostate it was 3.79 µM; in the assay on NCI/ADR-RES ovarian it was 19.3 µM; in the assay on RPMI-8226 leukemia, 9.23 µM.

`Cn1c(O)c(C=Nc2ccccc2Cl)c(=O)n(C)c1=O`: the TGI is 41.1 µM with SK-MEL-2 melanoma; over 100 µM in the assay with COLO 205 colon; 32.8 µM in the assay on NCI-H460 lung; over 100 µM with SN12C renal; over 100 µM with UACC-62 melanoma; 35.5 µM in the assay with HCT-116 colon. Moreover, the TGI with SR leukemia was 55.9 µM; with PC-3 prostate it was over 100 µM; in the assay on NCI/ADR-RES ovarian it was over 100 µM; in the assay on RPMI-8226 leukemia, 51.7 µM.

Consider `COC(=O)c1c(O)ccc2c1c1c(n2Cc2ccccc2)C(=O)c2ccccc2C1`, for which the TGI was over 100 µM in the assay on SK-MEL-2 melanoma; 28.9 µM with COLO 205 colon; over 100 µM in the assay with NCI-H460 lung; 45.4 µM in the assay on SN12C renal; over 100 µM in the assay on UACC-62 melanoma; over 100 µM in the assay on HCT-116 colon. In addition, the TGI amounted to 37.5 µM with SR leukemia, 60.5 µM in the assay with PC-3 prostate, 89.9 µM with NCI/ADR-RES ovarian and 32.6 µM with RPMI-8226 leukemia.
